Tests used:
CLDN18.1 = CLDN18.1 (Homo sapiens, UniProt P56856); assay: IMAB362 binding to other claudin family members
[1] = system: NUGC-4 gastric cancer cells; assay: IMAB362-mediated ADCC on chemotherapy pretreated NUGC-4 cells; assay type: cell-based, human; conditions: NUGC-4 pretreated with 5-FU+OX, EOF or FLO for 96 hours
Procedure: IMAB362-mediated ADCC was investigated using NUGC-4 gastric cancer cells as target, which were either pretreated with 10 ng/ml 5-FU and 500 ng/ml oxaliplatin (5-FU+OX), 10 ng/ml epirubicin, 500 ng/ml oxaliplatin and 10 ng/ml 5-FU (EOF) or 10 ng/ml 5-FU, 50 ng/ml folinic acid and 500 ng/ml oxaliplatin (FLO) for 96 hours (effector:target ratio 40:1) or untreated. EC50 values were obtained from 7 healthy donors for untreated and EOF, FLO or 5-FU+OX pretreated NUGC-4 cells.

[2] = system: NCI-N87~CLDN18.2 xenograft tumors; assay: NCI-N87~CLDN18.2 gastric carcinoma xenografts, IMAB362 immunotherapy; assay type: in vivo, nude mice; conditions: 800 μg i.v. weekly
Procedure: NCI-N87˜CLDN18.2 xenograft tumors were inoculated subcutaneously by injection of 1×10^7 NCI-N87˜CLDN18.2 cells into the flank of 8 nude mice (female, 6 weeks old) per treatment group. […] Intravenous administration was continued weekly for the whole observation time. Tumor size and animal health was monitored semi-weekly. […] The size of s.c. tumors was measured twice weekly (mean+SEM, ***p<0.001). […] Mice were sacrificed, when tumor reached a volume of 1400 mm^3.

[3] = system: CLS-103~cldn18.2 allograft tumors; assay: Combination of IMAB362 and EOF on CLS-103~cldn18.2 allograft tumors; parameters: species or system NMRI mice; conditions: mouse, in vivo
Text: Tumor size and animal health were monitored semi-weekly. Mice were sacrificed, when tumor reached a volume of 1400 mm^3 or tumors became ulcerous.

Chain of CLDN18.1 (P56856 whole entry): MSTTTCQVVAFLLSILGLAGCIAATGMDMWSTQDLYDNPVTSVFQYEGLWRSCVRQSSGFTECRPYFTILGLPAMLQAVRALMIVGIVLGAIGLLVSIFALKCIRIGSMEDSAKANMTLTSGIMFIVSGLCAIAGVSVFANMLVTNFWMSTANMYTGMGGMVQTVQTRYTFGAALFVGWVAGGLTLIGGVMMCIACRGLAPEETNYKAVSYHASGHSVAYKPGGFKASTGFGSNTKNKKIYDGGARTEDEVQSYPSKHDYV

IMAB362: chimeric IgG1 antibody directed against CLDN18.2, developed by Ganymed Pharmaceuticals AG
binding to any other claudin family member including CLDN18.1 (CLDN18.1): does not bind
maximal lysis in IMAB362-mediated ADCC, pretreated versus untreated target cells [1]: higher maximal lysis
EC50 of IMAB362-mediated ADCC on pretreated cells relative to untreated cells ([1]; E:T 40:1, 7 donors): one third
survival time [2]: significantly (p<0.05) longer survival time
tumor growth ([2]; start 5 days after inoculation, versus saline): inhibited highly significant (p<0.001)
tumor growth inhibition compared to saline control group [3]: no significant tumor growth inhibition
